Columns and labels:
[1] = system: stromelysin; assay: synovial stromelysin expression in arthritic rats (Northern blot); assay type: in vivo, rat; conditions: BMOV-treated (with NAC) vs control, Day 18
Procedure: Collagenase, stromelysin, and IL-1 expression were quantitated in each group of rats. Selected rats in each group were sacrificed on Day 18 post arthritis onset to measure collagenase, stromelysin, and IL-1 expression via the Northern Blot. Synovial biopsies were pooled and homogenized in the presence of RNASTAT-60 (Tel Test). Total RNA was isolated following the manufacturer's instructions, washed in 70% ethanol, and dissolved in 30 μl RNA loading buffer (Sigma) containing ethidium bromide. The RNA was electrophoresed on a 1% agarose formaldehyde gel and transferred to 0.45 μm nylon filter membrane (Magna NT, MSL). The blot was prehybridised in 50% formamide, 5×SSPE, 5×dendhardts, 1% SDS, 200 μg/ml ssDNA and 50 μg/ml tRNA. The rat collagenase cDNA (bp. 1-550 of locus RATCOL genbank accession M60616), rat stromelysin (ATCC, Rockville, Md.), or rat […] (genbank accession D00403) were labeled by random primed incorporation of ^32 P-dATP (Random Primed Labeling Kit, Boerhinger Manheim). After overnight hybridization at 42° C. overnight, the blot was washed in 1×SSPE at 37° C. and exposed to Kodak X-Ornat AP film for 24 hours at -70° C. with an intensifying screen. The blot was stripped with 50% formamide in 2×SSPE, checked for residual counts and reprobed. The resulting autoradiographs were digitized and analyzed with NIH image software and normalized for RNA loading.

[2] = system: MCF7 (ADR); assay: MTT cytotoxicity assay, MCF7 (ADR); assay type: cell-based, human; conditions: MCF7 (ADR), 72 hours; read-out: IC50 Value
Procedure: The relative cytotoxicity of various compounds on tumor cell lines was investigated as follows. Cytotoxicity was measured by the MTT microculture tetrazolium colorimetric assay for all cell lines. The relative cytotoxicity of Na3 VO4 and VOSO4 was investigated using the following tumor cell lines: P388(WT) murine leukemia, P388 (ADR) murine leukemia, Lewis murine lung, MCF7 (WT) human breast, […] human lung, K562 human erythroleukemia, A431 human epidermal, LS180 human colon and SK-OV-3 human ovarian. The relative cytotoxicity of doxorubicin, Na3 VO4 and VOSO4 was investigated using the following tumor cell lines: P388(WT) murine leukemia, P388 (ADR) murine leukemia, MCF7(WT) human breast and MCF7 (ADR) human breast. The relative cytotoxicity of BMOV, BEOV and naglivan was investigated using the following tumor cell lines: P388(WT) murine leukemia, P388 (ADR) murine leukemia, Lewis murine lung, H460 human lung, K562 human erythroleukemia, and SK-OV-3 human ovarian.
The cells were plated (number of cells/well was different from cell line to cell depending on the dividing rate) in a 96-well microculture plate 24 hours prior to the delivery of the vanadium compounds. Serial concentrations of solutions of the test compounds (0.05-100 μM) were delivered to the corresponding wells. A blank column (without cells) and a control column (with cells without vanadium) were left. The cells were incubated for 72 hours continuously. An MTT solution was added to each well after this incubation period and the cells were incubated for 4 more hours for the completion of the dyeing process. The medium was removed find DMSO was added to each well. The absorbance of each well was read with a Titertek Multiskan (310C) spectrophotometer at 570 nm. The percentage of the absorbance of each vanadium concentration relative to the control calculated and the value of the 50% growth inhibition concentration (IC50) was obtained from the % control versus concentration plot. Each assay was repeated three times and the reported IC50 values were the mean of these three runs.

[3] = system: jun; assay: jun / c-jun mRNA expression in chondrocytes (Northern blot); assay type: cell-based, bovine; conditions: 100 μM
Source text: The cytokine interleukin 1 (IL 1) has been used to identify the intermediate second messengers which regulate the expression of fos and jun.
Although IL 1 stimulated superoxide production, it was not known whether IL 1 induced fos and jun expression was dependent on the production of superoxides. In order to elucidate this possibility, the effect of DPI on fos and jun mRNA levels induced by IL 1 was investigated. RNA from chondrocytes treated with IL 1 in the presence and absence of DPI were analyzed by Northern blot analysis using either fos or collagenase cDNA probes. […] Similar data has been obtained for IL 1 induced jun expression. Furthermore, inhibition of fos and jun expression by DPI was sufficient to suppress IL 1 induced and constitutive collagenase expression.
The effect of orthovanadate and N-acetylcysteine on fos, jun and collagenase expression were examined. Bovine articular chondrocytes were isolated and plated as previously described (Kandel R. A. et al. Biochim. Biophys. Acta. 1053, 130-134, 1990). In order to determine the effect of orthovanadate on IL 1 and PMA (phorbol ester) induced responses, chondrocytes were incubated with orthovanadate (100 μM) for 2 hours before stimulation with IL 1 (10 ng/ml) or PMA ([…]). Collagenase production was determined by incubating chondrocytes for 24 hours with IL 1 or PMA and the cell conditioned medium was assayed for collagenase activity using an ELISA procedure as described previously (Kandel et al. supra). PLA2 activity was measured by incorporating ^3 H-arachidonic acid (^3 H-AA) into the cells and then incubating the cells with medium containing 1 mg/ml BSA, either alone or in the presence of IL 1 or PMA, for 10 min. as previously described (Conquer, J. A. […], Biochim. Biophys. Acta. 1134, 1-6). The amount of ^3 H-AA liberated into the supernatant was determined. […] The supernatant was analyzed by RIA using an antibody specific for PGE2 (Dr. S. A. Jones, Mount Sinai Hospital, Toronto, Canada). […]

Row | SMILES | percent inhibition of stromelysin gene expression [1] [%] | IC50 [2] [µM] | inhibition of IL 1, PMA and AA induced c-jun expression [3]
1 | Cc1occc(=O)c1[O-].Cc1occc(=O)c1[O-].[O]=[V+2] [BMOV, bis(methylmaltolato) oxovanadium (IV)] | 58 |  | 
2 | [Na+].[Na+].[Na+].[O]=[V]([O-])([O-])[O-] [orthovanadate, sodium orthovanadate] |  | 30.7 | completely inhibited

— US5871779A, “Treatment of arthropathies with vanadate compounds or analogues thereof” (Mount Sinai Hospital Corporation, priority 1996, dated 1999)
